Reference: patent publication US5928666A, “Crystalline form of estradiol and pharmaceutical formulations comprising same” (Cygnus Inc., priority 1997, dated 1999)

Key:
[1] = cited from earlier work
[2] = Flux of estradiol from equilibrated acrylate adhesive matrices through a 10 mil Silastic membrane (Example 7, Table 2); type: in vitro ADME; conditions: for Flux: 20 wt % acrylate matrix, 10 mil Silastic membrane, 32° C.; for average flux: average from Table 2 data
Experimental: Consequently, Crystal X provides an advantage in the preparation of pharmaceutical formulations comprising Crystal X especially transdermal drug delivery matrices. When Crystal X crystals are prepared in transdernal drug delivery formulations,the inherent increase in activity due to the higher thermodynamic activity of the Crystal X crystal versus E2-HH provides for increased flux. For example, equilibrated matrices containing Crystal X and E2-HH crystals were prepared in substantial accordance with the teaching of Example 7 herein and assayed for permeation through a Silastic membrane.
Measurement of estradiol flux was determined by drug flux through a 10 mil Silastic membrane in a modified Franz diffusion cells in substantial accordance with the following procedure. The adhesive matrix systems were peeled off the polyester release liner and placed on top of the Silastic membrane. Gentle pressure was applied to insure full contact between the drug adhesive layer and membrane. The membrane with the prototype system was then mounted carefully between the donor and the receiver compartments. The receiver compartment was filled nanopure water and the temperature was maintained at 32° C.±1° C. throughout the experimental period. Samples of receiver content was withdrawn and replaced with fresh buffer. Samples were assayed by HPLC.
Membrane flux (mg/cm^2 /hr) was determined by evaluating the cumulative flux of drug through a Silastic membrane over a given period of time and dividing by the time period. After steady state had been established, the flux values corresponding to steady state were averaged to obtain the flux value.
20 wt % acrylate adhesive matrices were prepared in accordance with Example 1. 20 % Crystal X was prepared in accordance with Example 3. The laminates were allowed to equilibrate for a period of 8 weeks to insure complete crystal structureation. Flux was determined as permeation through a 10 mil Silastic membrane as described above. The cumulative release of estradiol into the receiver was determined by HPLC method described above. The average flux over the period was calculated as the cumulative amount of drug in receiver divided by cumulative time.

Row | Flux ([2]; 2.5 hrs) [μg/cm^2 /hr] | Flux ([2]; 8.375 hrs) [μg/cm^2 /hr] | Flux ([2]; 17.625 hrs) [μg/cm^2 /hr] | Flux ([2]; 27.75 hrs) [μg/cm^2 /hr] | average flux [2] [μg/cm^2 /hr] | flux value at the end of the flux profile relative to E2-HH ([2]; higher than for E2-HH, 32° C. wet) | Structure (SMILES) | blood level in hormone replacement therapy ([1]; level the normal dosage is to produce, hormone replacement therapy) | blood level for treatment of osteoporosis ([1]; level utilized, osteoporosis) | thermodynamic activity ([2]; versus E2-HH)
1 |  |  |  |  |  |  | C[C@]12CC[C@@H]3c4ccc(O)cc4CC[C@H]3[C@@H]1CC[C@@H]2O [estradiol, estra-1, 3, 5(10)-triene-3, 17β-diol] | about 30 ng/L | approximately 40 ng/L | 
2 | 0.080 | 0.139 | 0.142 | 0.146 | 0.14 |  | C[C@]12CC[C@@H]3c4ccc(O)cc4CC[C@H]3[C@@H]1CC[C@@H]2O [E2-HH] |  |  | 
3 | 0.132 | 0.238 | 0.216 | 0.220 | 0.22 | about 2 times | C[C@]12CC[C@@H]3c4ccc(O)cc4CC[C@H]3[C@@H]1CC[C@@H]2O [Crystal X, estra-1, 3, 5(10)-triene-3, 17β-diol] |  |  | increased thermodynamic activity with respect to E2-HH
